# From US20120302629A1, “BIOMARKERS FOR GOSSYPOL CHEMOTHERAPY AND METHODS OF TREATING DISEASE” (THE REGENTS OF THE UNIVERSITY OF MICHIGAN, priority 2009, published 2012)
# Numbered stars: 1 amine (or outer) side, 2 acyl side, 3 side chain; on linkers, the order of the positions; unused ones are H or OH. Bridge positions count the residues as written; N and C are the ends. Square brackets hold non-standard residues; d marks the D form. Peptide text beside a SMILES is read from it. I, II: the chains in the order shown. Actinocin(9to1) = Cc1c2oc3c(C)ccc(C(=O)[*:1])c3nc-2c(C(=O)[*:2])c(N)c1=O; NMeV = CN[C@H](C(=O)O)C(C)C; Sar = CNCC(=O)O
# Experiments:
# [1] = system: MEF Bax/Bak KO cells; test: Apoptosis (Annexin V/PI flow cytometry) in MEF cells; assay type: cell-based; conditions: all the concentrations tested
# Experimental: (§1) Cell Growth, Cell Death, and Apoptosis: Cell growth inhibition by (−)-gossypol was determined in a water-soluble tetrazolium (WST)-based assay, as described previously (Shangary et al., Proc. Natl. Acad. Sci. USA 105:3933 (2008)). Cell viability was determined by trypan blue due exclusion as described (Shangary et al., Proc. Natl. Acad. Sci. USA 105:3933 (2008)). Experiments were done in triplicate. To examine apoptosis, cells were stained with Annexin V and PI and analyzed by flow cytometery using an Annexin V-FITC staining kit (Roche Applied Science, Indianapolis, Ind.) according to manufacturer's instructions. Briefly, cells were treated and collected by centrifugation, washed with PBS once and then stained with annexinV-FITC and PI for 15 min at room temperature in the dark. Stained cells were analyzed in a FACS caliber flow cytometer. AnnexinV positive cells are considered as apoptotic cells.
# [2] = system: Bcl-2 family proteins in 2LMP cells; test: Western blot of whole cell lysates; assay type: cell-based, human; conditions: cotreatment with (−)-gossypol (FIG. 26)
# Experimental: (§2) Western blot assay: Proteins were harvested in RIPA buffer, then electrophoresed on 4-20% gradient SDS-PAGE gels (Invitrogen, Grand Island, N.Y.) and transferred to PVDF membranes. The membranes were blocked in 5% milk and then incubated with specific primary antibody, followed by secondary antibody. The signals were visualized with the chemiluminescent HRP antibody detection reagent (Deville Scientific, Metuchen, N.J.).
# [3] = system: Bcl-2 family proteins in PC-3 cells; test: Western blot of whole cell lysates; assay type: cell-based, human; conditions: cotreatment with (−)-gossypol (FIG. 26)
# Experimental: as §2
# [4] = system: Noxa, Puma and Mcl-1 RNAs in 2LMP, PC-3, MDA-MB-436 and DU145 cells; test: Taqman real-time PCR with actinomycin D cotreatment; assay type: cell-based, human; conditions: cotreatment with (−)-gossypol 10 μm
# Experimental: Real-Time PCR: Total RNA was extracted by RNA miniprep kit (Sigma) from cells treated with or without of (−)-gossypol. cDNA was synthesized from 2 μg of RNA using cDNA reverse transcription kits (Applied Biosystems). Next, Taqman gene expression assays were performed using Noxa (Hs00560402_ml), Puma (Hs00248075_ml), Mcl-1 (Hs00172036_ml) gene specific primers/probe sets for real-time PCR in a ABI7900HT PCR machine. GAPDH (Hs99999905_ml) was used for normalization. Relative quantitation of mRNA was calculated by comparative cycle threshold (Ct) method.
# [5] = system: 2LMP cells; test: Cell death by trypan blue dye exclusion; assay type: cell-based, human; conditions: c-Myc siRNA, 24 h
# Experimental: as §1
smiles,measurement,setting,value
"COc1cc([C@@H]2c3cc4c(cc3[C@@H](O[C@@H]3O[C@@H]5CO[C@@H](C)O[C@H]5[C@H](O)[C@H]3O)[C@H]3COC(=O)[C@H]23)OCO4)cc(OC)c1O [VP-16, 4′-demethylepipodophyllotoxin 9-[4,6-0-(R)-ethylidene-(beta)-D-glucopyranoside], reference compound]",induction of cell death in the MEF Bax/Bak double knock-out,[1],blocked
"Cc1c2oc3c(C)ccc(C(=O)N[C@@H]4C(=O)N[C@H](C(C)C)C(=O)N5CCC[C@H]5C(=O)N(C)CC(=O)N(C)[C@@H](C(C)C)C(=O)O[C@@H]4C)c3nc-2c(C(=O)N[C@@H]2C(=O)N[C@H](C(C)C)C(=O)N3CCC[C@H]3C(=O)N(C)CC(=O)N(C)[C@@H](C(C)C)C(=O)O[C@@H]2C)c(N)c1=O [actinomycin D, reference compound] (I: T[dV]P[Sar][NMeV] / II: T[dV]P[Sar][NMeV]; ester I:1-I:C, II:1-II:C; linker I:N-II:N via Actinocin(9to1))",(−)-gossypol-upregulated Noxa and Puma proteins under cotreatment,[2],significantly blocked
same,(−)-gossypol-upregulated Noxa and Puma proteins under cotreatment,[3],significantly blocked
same,"upregulation of Noxa, Puma and Mcl-1 RNAs by (−)-gossypol under cotreatment",[4],completely blocks
"CC(C)C[C@H](NC(=O)[C@H](Cc1ccccc1)NC(=O)c1cnccn1)B(O)O [bortezomib, reference compound]",cell death upon knock-down of c-Myc,[5],blocked cell death
